Assay [1] relates to CD4+ T-cells and dendritic cells. The experiment in a line: I-MUNE assay: CD4+ T-cell proliferation to 15-mer peptide sets presented by dendritic cells. Type of assay: cell-based, human. The arrangement: Structure Value: scale not given here; quantitative response among responders: unit not given here. As to conditions: for Response/Peptide: SI>2.95; for Average percent response to epitope peptide: Table 6, repeat tests of the epitope peptide on discrete donor groups; for effect of substitution on percent of responders to the epitope: peptide #49 variants, 69 donors; for response to the peptide: beta-lactamase peptide set, 3× above the background; for statistical significance of the peptide response: conservative and non-conservative Poisson methods. Here is the method:
All peptides were obtained from a commercial source (Mimotopes, San Diego, C-A). For the I-MUNE® assay system described herein, 15-mer peptides offset by 3 amino acids that described the entire sequence of the proteins of interest were synthesized in a multipin format (See, Maeji et al., J. Immunol. Meth., 134:23-33 [1990]). Peptides were resuspended in DMSO at approximately 1 to 2 mg/ml, and stored at −70° C. prior to use. Each peptide was tested at least in duplicate, although for small peptide sets (e.g., Ber e 1), the peptides were routinely tested in triplicate.
Volunteer donor human blood buffy coat samples were obtained from two commercial sources (Stanford Blood Center, Palo Alto, Calif., and the Sacramento Medical Foundation, Sacramento, Calif.). Buffy coat samples were further purified by density separation. Each sample was HLA typed for HLA-DR and HLA-DQ using a commercial PCR-based kit (Bio-Synthesis).
Monocytes were purified by adherence to plastic in AIM V medium (Gibco/Life Technologies). Adherent cells were cultured in AIM V media containing 500 units/ml of recombinant human IL-4 (Endogen) and 800 units/ml recombinant human GM-CSF (Endogen) for 5 days. On day 5, recombinant human IL-1α (Endogen) and recombinant human TNF-α (Endogen) were added to 50 units/ml and 0.2 units/ml, respectively. On day 7, the fully matured dendritic cells were treated with 50 μg/ml mitomycin C (Sigma) for 1 hour at 37° C. Treated dendritic cells were dislodged with 50 mM EDTA in PBS, washed in AIM V medium, counted, and resuspended in AIM V media at 2×10^5 cells/ml.
CD4^+ T-cells were purified by negative selection from frozen aliquots of human peripheral blood mononuclear cells (PBMC) using Cellect CD4 columns (Cedarlane). […] CD4^+ T-cells were resuspended in AIM V media at 2×10^6 cells per ml.
CD4^+ T-cells and dendritic cells were plated in round-bottomed 96 well format plates at 100 μl of each cell mix per well. Peptide was added to a final concentration of approximately 5 ug/ml in 0.25-0.5% DMSO. Control wells contained 0.5% DMSO without added peptide. Each peptide was tested in duplicate. Cultures were incubated at 37° C., in 5% CO2 for 5 days. On day 5, 0.5 uCi of tritiated thymidine (NEN DuPont) was added to each well. On day 6, the cultures were harvested onto glass fiber mats using a TomTec manual harvester (TomTec), then processed for scintillation counting. Proliferation was assessed by determining the average counts per minute (CPM) value for each set of duplicate wells (TriLux Beta). This method is also described in U.S. Pat. No. 6,218,165 and Stickler et al., J. Immunother. 23: 654-660 (2000), both of which are herein incorporated by reference.
For each individual buffy coat sample, the average CPM values obtained in the I-MUNE® assay for all of the peptides were analyzed. The average CPM values for each peptide were divided by the average CPM value for the control (DMSO only) wells to determine the “stimulation index” (SI). Donors were tested with each peptide set until an average of at least two responses per peptide were compiled. The data for each protein was graphed showing the percent responders to each peptide within the set. A positive response was collated if the SI value was equal to or greater than 2.95. This value was chosen as it approximates a difference of three standard deviations in a normal population distribution. For each protein assessed, positive responses to individual peptides by individual donors were compiled. To determine the background response for a given protein, the percent responders for each peptide in the set were averaged and a standard deviation was calculated. SI values for each donor were compiled for each peptide set, and the percent of responders reported.

In assay [2] the target is HLA-DR6(13). The experiment in a line: Peptide binding competition assay, HLA class II. The arrangement: species or system human. As to conditions: competition with standard peptide. The protocol:
In addition to the above I-MUNE® assay, peptide binding assays were also performed. The peptide binding assay used during the development of the present invention is known in the art (Southwood et al., J. Immunol., 160:3363-3373 [1998]). Briefly, HLA-DR and -DQ molecules were purified from a panel of EBV transformed cell lines. A competition assay was performed with a characterized standard peptide, and the unknown peptide. The amount of unknown peptide required to compete 50% of the standard peptide binding was then determined (indicated as the IC50).
The IC50 for HLA class II protein binding was determined for peptide epitopes defined by the in two related industrial bacterial proteases (See, FIG. 17). The peptides were tested in a competition assay for binding to 18 different HLA-DR and -DQ proteins. […] This likely explains the association seen in the data for a response to this peptide with HLA-DR6(13) donors (p=0.00015; relative risk=7.22, n=113 donors tested). Those results with values less than 500 nM were considered to be good binders and are highlighted in bold in FIG. 17. Also, in this Figure, degeneracy indicates the number of HLA Class II proteins that bind with an IC50 of less than 500 nM out of the 18 total alleles tested.

[3] abbreviates: Table 3, Stanford and Sacramento donors.

Take hTpo: human thrombopoietin: in assay [1], the “structure value, in words” value is recorded as “comparatively high” and the “Average percent response to epitope peptide” value (from here on “Average percent response”) was 9.18%. In assay [1] (Table 2), the “Average Background” value is on record as 2.56, the “Number of epitope regions” value is 1, the Response per peptide is 2.54 and the Structure Value was found to be 0.65. Further, in assay [1] (Table 3), the Background % came out at 2.53% and the Response/Peptide amounted to 2.24. Moreover, the “Structure Value” in assay [1] (setting [3]) amounted to 0.65. The “Background +/− sd” value in assay [1] (Table 5, background response value) is 2.54 +/− 2.23. Moreover, in assay [1] (Table 5, determined experimentally), the Responses/peptide found came out at 2.51.
For the substance “Ecotin: serine protease inhibitor from E. coli K12; GenBank Accession No. NP—416713”, in assay [1] (Table 3), the Background % turned out to be 5.69% and the Response/Peptide was determined as 3.98. The “Structure Value” in assay [1] (setting [3]) worked out at 0.64.
“GTTRSYANASIGLFG (synthetic variant) [L149S]”: in assay [1], the “effect of substitution on percent of responders to the epitope” value was “had an effect on the epitope response rate”.
Still for that read-out and setting: under “GTTRLYANASVGLFG (synthetic variant) [I155V]” stands “increased the percent of responders to the modified epitope sequence”.
Same read-out and setting: next, “GTTRLYANASLGLFG (synthetic variant) [I155L]”: “had little effect”.
“MLDLATYTAGGLPLQ (listed as Enterobacter cloacae) [Peptide #36]”: the figures for the “quantitative response among responders” value in assay [1] (DR1+ responders) and in assay [1] (DR1− responders) were 7.8 and 4.42, respectively. Also, the “response to the peptide” value in assay [1] turned out to be 12.11%. In addition, in assay [1], the “statistical significance of the peptide response” value (shortened to “statistical significance”) is recorded as “significant (p<0.05)”.
On to “ITPLMKAQSVPGMAV (listed as Enterobacter cloacae) [Peptide #6]”, for which the “statistical significance” value in assay [1] is “reached statistical significance using less conservative analyses”.
With “BPN′ Y217L#37: 15-mer epitope peptide number 37 of BPN′ Y217L, amino acids 109-123 (NGIEWAIANNMDVIN)”, the “Average percent response” value in assay [1] is 12.91%.
Take “TGGFGSYVAFLPEKQ (TGGFGSYVAFIPEKQ; listed as Enterobacter cloacae) [Peptide #107]”: in assay [1] (DR1+ responders), the “quantitative response among responders” value is 5.4. Moreover, in assay [1] (DR1− responders), the “quantitative response among responders” value worked out at 4.2. Further, in assay [1], the “response to the peptide” value was determined as 12.11% and the “statistical significance” value is on record as “significant (p<0.05)”.
Usually IC50 stands for the concentration needed to halve the response being measured. “BPN′ Y217L #24: 15-mer epitope peptide number 24 of BPN′ Y217L, amino acids 70-84 (GTVAALNNSIGVLGV)”: the “Average percent response” value in assay [1] amounted to 11.69%. Besides, in assay [2], the IC50 was 0.69 nM.
As to “GTTRLYANASIGLFG (listed as Enterobacter cloacae) [Peptide #49]”, the “statistical significance” value in assay [1] is “reached statistical significance using less conservative analyses”.
On to “GTTRLYANASFGLFG (synthetic variant) [I155F]”, for which, in assay [1], the “effect of substitution on percent of responders to the epitope” value is on record as “had little effect”.

(Values after patent US20080220450A1, “Population Based Prediction Methods for Immune Response Determinations and Methods for Verifying Immunological Response Data” (Danisco US, Inc., Genencor Division, priority 2004, published 2008).)
